Experimental data reported in patent US11208388B2, “Certain chemical entities, compositions, and methods” (NeuPharma, Inc., priority 2016, dated 2021).

Legend:
[1] = molecular target: BTK (Homo sapiens (Human), UniProt Q06187); assay: Z'-LYTE kinase inhibition assay against BTK; type: biochemical; settings: compound at 100 nM; ATP concentration at Km
Procedure: Inhibitory activities of compounds against BTK, EGFR T790M, EGFR L858R, and EGFR L858R/T790M were measured using Z′-LYTE® Method from Life Technologies as briefly described in the following.
Test Compounds are screened in […] DMSO (final) in the well. For 10 point titrations, 3-fold serial dilutions are conducted from the starting concentration. All ATP Solutions are diluted to a 4× working concentration in Kinase Buffer (50 mM HEPES pH 7.5, 0.01% BRIJ-35, 10 mM MgCl2, 1 mM EGTA). Peptide/Kinase Mixtures are diluted to a 2× working concentration in the appropriate Kinase Buffers as described below. • (i) Peptide/Kinase Mixtures for measurement of EGFR (ErbB1) L858R: • The 2×EGFR (ErbB1) L858R/Tyr 04 mixture is prepared in 50 mM HEPES pH 7.5, 0.01% BRIJ-35, 10 mM MgCl2, 4 mM MnCl2, 1 mM EGTA, 2 mM DTT. The final 10 μL Kinase Reaction consists of 0.2-1.68 ng EGFR (ErbB1) L858R and 2 μM Tyr 04 in 50 mM HEPES pH 7.5, 0.01% BRIJ-35, 10 mM MgCl2, 2 mM MnCl2, 1 mM EGTA, 1 mM DTT. After the 1 hour Kinase Reaction incubation, 5 μL of a 1:64 dilution of Development Reagent B is added. • (ii) Peptide/Kinase Mixtures for measurement of EGFR (ErbB1) T790M: The 2×EGFR (ErbB1) T790M/Tyr 04 mixture is prepared in 50 mM HEPES pH 6.5, 0.01% BRIJ-35, 10 mM MgCl2, 1 mM EGTA, 0.02% NaN3. The final 10 μL Kinase Reaction consists of 3.9-30.2 ng EGFR (ErbB1) T790M and 2 μM Tyr 04 in 50 mM HEPES pH 7.0, 0.01% BRIJ-35, 10 mM MgCl2, 1 mM EGTA, 0.01% NaN3. After the 1 hour Kinase Reaction incubation, 5 μL of a 1:64 dilution of Development Reagent B is added. • (iii) Peptide/Kinase Mixtures for measurement of EGFR (ErbB1) L858R/T790M: The 2×EGFR (ErbB1) T790M L858R/Tyr 04 mixture is prepared in 50 mM HEPES pH 6.5, 0.01% BRIJ-35, 10 mM MgCl2, 1 mM EGTA, 0.02% NaN3. The final 10 μL Kinase Reaction consists of 0.38-4.22 ng EGFR (ErbB1) T790M L858R and 2 μM Tyr 04 in 50 mM HEPES pH 7.0, 0.01% BRIJ-35, 10 mM MgCl2, 1 mM EGTA, 0.01% NaN3. After the 1 hour Kinase Reaction incubation, 5 μL of a 1:64 dilution of Development Reagent B is added. • (iv) Peptide/Kinase Mixtures for measurement of BTK: The 2×BTK/Tyr 01 mixture is prepared in 50 mM HEPES pH 7.5, 0.01% BRIJ-35, 10 mM MgCl2, 1 mM EGTA. […]
Reaction starts by 30-second shaking of mixture consisting of 2.5 μL 4× test compound, 5 μL 2× kinase reaction mixture and 2.5 μL 4×ATP Solution on Bar-coded Corning, low volume NBS, black 384-well plate (Corning Cat. #3676). […] Finally fluorescence is read by plate reader. […]
To determine IC50 of a compound against a kinase, a series of concentrations of the compound were tested for the inhibition. IC50 was calculated by plotting the concentration of compound vs the percentage of inhibition in treated wells using GraphPad Prism 5. […]

[2] = tested on: OCI-LY10 cells; assay: OCI-Ly10 cell proliferation, Alamar Blue (resazurin), 72 hours; type: cell-based
Procedure: OCI-Ly10 cells were cultured in Iscove's DMEM supplemented with 20% fetal bovine serum and IX penicillin/streptomycin/glutamine. The cells were maintained in T175 flasks under 5% CO2 in a 37° C. humidified incubator for 5 days prior to plating and assay.
Cells were pooled by centrifugation (200 ref, 8 minutes) and resuspended in fresh medium to a concentration of 2.00E+05 cells/ml. 200 μl of the cell suspension was added to each well (40,000 cells/well) of a black-walled 96 well plate to which 1 μl of compound (n=3 per concentration) in 100% DMSO (0.5% final concentration) was added per well. Vehicle and cell free wells were also included in the assay. The dosed cells were cultured under normal conditions for 72 hours.
Cell proliferation is measured using the dye Alamar Blue (resazurin). Resazurin is reduced to resorufin by cellular enzymes and is fluorescent (544 nm excitation, 612 nm emission). Fluorescence intensity is proportional to cell number. Resazurin was prepared in PBS to a stock concentration of 440 μM. 40 μl of the 440 μM resazurin stock solution was added 3 hours prior to the 72 hour termination of the assay. The plate was returned to normal culture conditions and fluorescence measurements were collected using a Cytation3 multimode plate reader (Biotek) at 72 hours.
The scale utilized in Table 8 is as follows: ++ less than 50 nM and + greater than 50 nM.

Chain of BTK (Q06187 whole entry): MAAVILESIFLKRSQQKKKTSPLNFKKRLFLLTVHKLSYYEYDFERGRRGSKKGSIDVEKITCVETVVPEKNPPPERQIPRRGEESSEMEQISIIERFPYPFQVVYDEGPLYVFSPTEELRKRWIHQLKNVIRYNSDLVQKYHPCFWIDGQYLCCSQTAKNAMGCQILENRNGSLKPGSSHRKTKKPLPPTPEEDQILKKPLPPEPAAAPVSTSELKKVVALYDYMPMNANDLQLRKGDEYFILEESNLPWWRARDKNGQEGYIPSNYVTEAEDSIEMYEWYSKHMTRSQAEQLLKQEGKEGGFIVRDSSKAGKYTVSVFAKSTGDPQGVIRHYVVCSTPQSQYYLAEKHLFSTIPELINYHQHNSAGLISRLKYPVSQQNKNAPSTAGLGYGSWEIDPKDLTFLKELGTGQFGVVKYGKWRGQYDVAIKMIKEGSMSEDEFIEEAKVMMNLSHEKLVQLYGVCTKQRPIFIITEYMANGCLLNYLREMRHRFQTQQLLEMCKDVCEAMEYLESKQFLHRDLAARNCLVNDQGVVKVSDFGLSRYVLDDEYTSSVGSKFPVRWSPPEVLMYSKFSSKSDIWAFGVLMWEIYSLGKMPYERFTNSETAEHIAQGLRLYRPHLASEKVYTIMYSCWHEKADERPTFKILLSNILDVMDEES

SMILES	% Inhibition against BTK [1]	IC50 [2]
C=CC(=O)Nc1cccc(-c2cc(-c3cccnc3)cc3cnc(N)nc23)c1 [Example C035, N-(3-(2-amino-6-(pyridin-3-yl)quinazolin-8-yl)phenyl)-acrylamide]	++ (more than 50% inhibition)	> 50 nM
C=CC(=O)Nc1cccc(-c2cc(-c3ccc(C(=O)Nc4ccccc4)nc3)cc3cnc(N)nc23)c1 [Example C059, 5-(8-(3-acrylamidophenyl)-2-aminoquinazolin-6-yl)-N-phenylpicolinamide]	+ (less than 50% inhibition)	
C=CC(=O)N1CCC(c2cc(-c3ccc(C(=O)Nc4cccc(F)c4)nc3)cc3cncnc23)C1 (stereo not drawn) [Example C097, 5-(8-(1-acryloylpyrrolidin-3-yl)quinazolin-6-yl)-N-(3-fluorophenyl)picolinamide]	+ (less than 50% inhibition)	
C=CC(=O)Nc1cccc(-c2cc(-c3ccc(Oc4ncccc4F)cc3F)cc3cncnc23)c1 [Example C105, N-(3-(6-(2-fluoro-4-((3-fluoropyridin-2-yl)oxy)-phenyl)quinazolin-8-yl)-phenyl)acrylamide]	++ (more than 50% inhibition)	< 50 nM
